Earlier results on 1 molecule are cited in patent publication EP2517696A1, “Extended release memantine tablet” (Ali Raif Ilaç Sanayi ve Ticaret Anonim Sirketi, priority 2011, dated 2012).

Structures are written as SMILES. Counter-ions that a name gives are not always drawn.

The conditions of data set [1]: in vivo.
The conditions of data set [2]: high dissolution and permeability.

On to `CC12CC3CC(C)(C1)CC(N)(C3)C2` [Memantine HCl, 3,5 dimethyl-1-adamantamine hydrochloride], for which the absolute bioavailability in data set [1] is given as 100%. Further, the BCS class entry in data set [2] was “BCS 1 class”.
